From ChEMBL document CHEMBL3259546, “Chrotacumines G-J, chromone alkaloids from Dysoxylum acutangulum with osteoclast differentiation inhibitory activity” (Bioorg Med Chem Lett, 2014)

How the values were obtained:
Osteoclast = test: Inhibition of RANKL-induced osteoclast differentiation in ICR mouse bone marrow after 48 hrs by TRAP assay; type: functional, cell-based
[1] = Cytotoxicity against ICR mouse osteoclasts by MTT assay; type: cell-based; details: osteoclast

Row | Compound | IC50 (Osteoclast) [µM] | inhibition (Osteoclast) | Activity [1]
1 | COc1cc(/C=C/C(=O)O[C@@H]2CN(C)CC[C@@H]2c2c(O)cc(O)c3c(=O)cc(C)oc23)cc(OC)c1OC | 9.8 | Dose-dependent effect | Non-toxic
2 | COc1cc(C(=O)O[C@@H]2CN(C)CC[C@@H]2c2c(O)cc(O)c3c(=O)cc(C)oc23)ccc1O | 15.1 | Dose-dependent effect | Non-toxic
